Reference: PMC5218480 (PLoS ONE, 2017)

Test system: MV-4-11 cells
Assay: Gene expression microarray analysis (Affymetrix PrimeView) and GSEA
Format: cell-based, human
Set-up: RFU PODN (11730768_x_at) / Fold change /veh PODN (11730768_x_at) / RFU LINC00158 (11744669_a_at) / Fold change /veh LINC00158 (11744669_a_at) / RFU DUSP10 (11751237_a_at) / Fold change /veh DUSP10 (11751237_a_at) / RFU ID3 (11757404_x_at) / Fold change /veh ID3 (11757404_x_at) / RFU PLEKHG5 (11737974_s_at) / Fold change /veh PLEKHG5 (11737974_s_at) / RFU LRRC4B (11730491_at) / Fold change /veh LRRC4B (11730491_at) / RFU GIMAP4 (11747438_a_at) / Fold change /veh GIMAP4 (11747438_a_at) / RFU KRT8 (11758183_x_at) / Fold change /veh KRT8 (11758183_x_at) / RFU CNN1 (11734310_a_at) / Fold change /veh CNN1 (11734310_a_at) / RFU VPS37D (11726825_at) / Fold change /veh VPS37D (11726825_at) / RFU C10orf10 (11716522_x_at) / Fold change /veh C10orf10 (11716522_x_at) / RFU KIR2DL2 /// KIR2DL4 /// KIR2DL5A /// KIR2DL5B /// KIR2DS1 /// KIR2DS2 /// KIR2DS3 /// KIR2DS4 /// KIR3DL3 /// KIR3DL3 /// KIR3DS1 (11738374_at) / Fold change /veh KIR2DL2 /// KIR2DL4 /// KIR2DL5A /// KIR2DL5B /// KIR2DS1 /// KIR2DS2 /// KIR2DS3 /// KIR2DS4 /// KIR3DL3 /// KIR3DL3 /// KIR3DS1 (11738374_at) / RFU C1QL1 (11718748_at) / Fold change /veh C1QL1 (11718748_at) / RFU TMPRSS4 (11747572_a_at) / Fold change /veh TMPRSS4 (11747572_a_at) / RFU HAMP (11756126_x_at) / Fold change /veh HAMP (11756126_x_at) / RFU RNFT2 (11725882_a_at) / Fold change /veh RNFT2 (11725882_a_at) / RFU NR4A2 (11747474_a_at) / Fold change /veh NR4A2 (11747474_a_at) / RFU ABCC12 (11746883_a_at) / Fold change /veh ABCC12 (11746883_a_at) / RFU TMEM136 (11760407_x_at) / Fold change /veh TMEM136 (11760407_x_at) / RFU CLDN22 /// WWC2 (11732394_at) / Fold change /veh CLDN22 /// WWC2 (11732394_at) / RFU HLA-DPB1 (11760878_x_at) / Fold change /veh HLA-DPB1 (11760878_x_at) / RFU SPINT1 (11716480_a_at) / Fold change /veh SPINT1 (11716480_a_at) / RFU GAP43 (11754022_s_at) / Fold change /veh GAP43 (11754022_s_at) / RFU A4GNT (11735810_at) / Fold change /veh A4GNT (11735810_at) / RFU PRB3 (11715151_x_at) / Fold change /veh PRB3 (11715151_x_at) / RFU TUBB4B (11761932_at) / Fold change /veh TUBB4B (11761932_at) / RFU CAPN14 (11732068_a_at) / Fold change /veh CAPN14 (11732068_a_at) / RFU TMCC2 (11721928_a_at) / Fold change /veh TMCC2 (11721928_a_at) / RFU IRGQ (11745062_a_at) / Fold change /veh IRGQ (11745062_a_at) / RFU FAM174B (11720279_a_at) / Fold change /veh FAM174B (11720279_a_at) / RFU TMPRSS4 (11748680_a_at) / Fold change /veh TMPRSS4 (11748680_a_at) / RFU FAM212B (11763350_a_at) / Fold change /veh FAM212B (11763350_a_at) / RFU PLEKHG5 (11743358_a_at) / Fold change /veh PLEKHG5 (11743358_a_at) / RFU ZSCAN30 (11745921_a_at) / Fold change /veh ZSCAN30 (11745921_a_at) / RFU CMKLR1 (11741424_a_at) / Fold change /veh CMKLR1 (11741424_a_at) / RFU LOC101060620 /// MAPK8IP1 (11723275_at) / Fold change /veh LOC101060620 /// MAPK8IP1 (11723275_at) / RFU SPTSSB (11747773_x_at) / Fold change /veh SPTSSB (11747773_x_at) / RFU PRSS12 (11739890_at) / Fold change /veh PRSS12 (11739890_at) / RFU BIN1 (11741810_x_at) / Fold change /veh BIN1 (11741810_x_at) / RFU WNT11 (11732464_a_at) / Fold change /veh WNT11 (11732464_a_at) / RFU C10orf10 (11716521_a_at) / Fold change /veh C10orf10 (11716521_a_at) / RFU C5orf56 (11738089_at) / Fold change /veh C5orf56 (11738089_at) / RFU CYB561 (11721691_x_at) / Fold change /veh CYB561 (11721691_x_at) / RFU ANKRD19P (11752326_a_at) / Fold change /veh ANKRD19P (11752326_a_at) / RFU OR2T12 /// OR2T33 /// OR2T8 (11738714_s_at) / Fold change /veh OR2T12 /// OR2T33 /// OR2T8 (11738714_s_at) / RFU VCAN (11748164_a_at) / Fold change /veh VCAN (11748164_a_at) / RFU JSRP1 (11732532_at) / Fold change /veh JSRP1 (11732532_at) / RFU KRTAP10-11 (11738290_x_at) / Fold change /veh KRTAP10-11 (11738290_x_at) / RFU MYO3A (11730013_a_at) / Fold change /veh MYO3A (11730013_a_at) / RFU EBF3 (11725865_a_at) / Fold change /veh EBF3 (11725865_a_at) / RFU CAMK2N1 (11719241_x_at) / Fold change /veh CAMK2N1 (11719241_x_at) / RFU C5orf56 (11738088_a_at) / Fold change /veh C5orf56 (11738088_a_at) / RFU OLFML3 (11715873_a_at) / Fold change /veh OLFML3 (11715873_a_at) / RFU LOC100653217 /// NTM (11731650_a_at) / Fold change /veh LOC100653217 /// NTM (11731650_a_at) / RFU MAPK11 (11762145_a_at) / Fold change /veh MAPK11 (11762145_a_at) / RFU FIZ1 (11724087_x_at) / Fold change /veh FIZ1 (11724087_x_at) / RFU OASL (11726364_x_at) / Fold change /veh OASL (11726364_x_at) / RFU SOX15 (11748057_x_at) / Fold change /veh SOX15 (11748057_x_at) / RFU CD79A (11719716_a_at) / Fold change /veh CD79A (11719716_a_at) / RFU HIST1H1D (11736915_at) / Fold change /veh HIST1H1D (11736915_at) / RFU CASKIN2 (11723855_a_at) / Fold change /veh CASKIN2 (11723855_a_at) / RFU LOC730098 (11760151_x_at) / Fold change /veh LOC730098 (11760151_x_at) / RFU OR4N2 (11742367_at) / Fold change /veh OR4N2 (11742367_at) / RFU PRRT2 (11749266_a_at) / Fold change /veh PRRT2 (11749266_a_at) / RFU SNX32 (11753110_a_at) / Fold change /veh SNX32 (11753110_a_at) / RFU CDHR5 (11726645_a_at) / Fold change /veh CDHR5 (11726645_a_at) / RFU RCAN1 (11760418_a_at) / Fold change /veh RCAN1 (11760418_a_at) / RFU FAM167A (11723789_a_at) / Fold change /veh FAM167A (11723789_a_at) / RFU FAM26E (11764081_at) / Fold change /veh FAM26E (11764081_at) / RFU ISYNA1 (11749810_s_at) / Fold change /veh ISYNA1 (11749810_s_at) / RFU ACY1 (11761880_at) / Fold change /veh ACY1 (11761880_at) / RFU 11764098_at / Fold change /veh 11764098_at / RFU SAMD14 (11745864_x_at) / Fold change /veh SAMD14 (11745864_x_at) / RFU NPB (11741838_a_at) / Fold change /veh NPB (11741838_a_at) / RFU TMPRSS6 (11731388_a_at) / Fold change /veh TMPRSS6 (11731388_a_at) / RFU KRTAP10-2 (11738614_at) / Fold change /veh KRTAP10-2 (11738614_at) / RFU ARHGAP8 /// PRR5-ARHGAP8 (11727945_x_at) / Fold change /veh ARHGAP8 /// PRR5-ARHGAP8 (11727945_x_at) / RFU KRTAP5-7 /// NADSYN1 (11734609_at) / Fold change /veh KRTAP5-7 /// NADSYN1 (11734609_at) / RFU RASL12 (11751679_a_at) / Fold change /veh RASL12 (11751679_a_at) / RFU CDKN2B (11736163_a_at) / Fold change /veh CDKN2B (11736163_a_at) / RFU PRF1 (11729649_at) / Fold change /veh PRF1 (11729649_at) / RFU, ZNF638 /// ZNF638-IT1 / Fold change vs veh, ZNF638 /// ZNF638-IT1 / RFU, PANK3 / Fold change vs veh, PANK3 / RFU, SH3YL1 / Fold change vs veh, SH3YL1 / RFU, ZEB2 / Fold change vs veh, ZEB2 / RFU, NRIP1 / Fold change vs veh, NRIP1 / RFU, PTTG1IP / Fold change vs veh, PTTG1IP / RFU, CAPN2 / Fold change vs veh, CAPN2 / RFU, MED14 / Fold change vs veh, MED14 / RFU, SNORA58 / Fold change vs veh, SNORA58 / RFU, C1orf63 / Fold change vs veh, C1orf63 / RFU, LRRFIP1 / Fold change vs veh, LRRFIP1 / RFU, NDUFAF7 / Fold change vs veh, NDUFAF7 / RFU, SLC12A2 / Fold change vs veh, SLC12A2 / RFU, IBTK / Fold change vs veh, IBTK / RFU, ESF1 / Fold change vs veh, ESF1 / Fold change vs veh, TMEM50B / RFU, TAOK1 / Fold change vs veh, TAOK1 / RFU, ACBD3 / Fold change vs veh, ACBD3 / RFU, TMA16 / Fold change vs veh, TMA16 / RFU, RWDD3 / Fold change vs veh, RWDD3 / RFU, BCAT1 / Fold change vs veh, BCAT1 / RFU, EDEM3 / Fold change vs veh, EDEM3 / RFU, TMEM33 / Fold change vs veh, TMEM33 / RFU, WDR75 / Fold change vs veh, WDR75 / RFU, AHCTF1 / Fold change vs veh, AHCTF1 / RFU, TFRC / Fold change vs veh, TFRC / RFU, ZDHHC17 / Fold change vs veh, ZDHHC17 / RFU, NOM1 / Fold change vs veh, NOM1 / RFU, ARL8B / Fold change vs veh, ARL8B / RFU, ZBTB11 / Fold change vs veh, ZBTB11 / RFU, TAMM41 / Fold change vs veh, TAMM41 / RFU, KIAA1704 /// LOC100996395 / Fold change vs veh, KIAA1704 /// LOC100996395 / RFU, ING1 / Fold change vs veh, ING1 / RFU, TRMT61B / Fold change vs veh, TRMT61B / RFU, FUBP3 / Fold change vs veh, FUBP3 / RFU, TP53 / Fold change vs veh, TP53 / RFU, TNKS2 / Fold change vs veh, TNKS2 / RFU, ZFP14 / Fold change vs veh, ZFP14 / RFU, ACTR2 / Fold change vs veh, ACTR2 / RFU, PPP3R1 / Fold change vs veh, PPP3R1 / RFU, PIK3R1 / Fold change vs veh, PIK3R1 / RFU, HNRNPA1 / Fold change vs veh, HNRNPA1 / RFU, RNF170 / Fold change vs veh, RNF170 / RFU, ZNF28 / Fold change vs veh, ZNF28 / RFU, RNGTT / Fold change vs veh, RNGTT / RFU, OGT / Fold change vs veh, OGT / RFU, BRD1 / Fold change vs veh, BRD1 / RFU, MARS / Fold change vs veh, MARS / RFU, ZNF655 / Fold change vs veh, ZNF655 / RFU, FAHD1 / Fold change vs veh, FAHD1 / RFU, BDP1 / Fold change vs veh, BDP1 / RFU, LRRCC1 / Fold change vs veh, LRRCC1 / RFU, ARID1A / Fold change vs veh, ARID1A / RFU, ZNF146 / Fold change vs veh, ZNF146 / RFU, ZNF330 / Fold change vs veh, ZNF330 / RFU, GPN3 / Fold change vs veh, GPN3 / RFU, C9orf123 / Fold change vs veh, C9orf123 / RFU, N4BP2L2 / Fold change vs veh, N4BP2L2 / RFU, ARFIP1 / Fold change vs veh, ARFIP1 / RFU, FAM179B / Fold change vs veh, FAM179B / RFU, BCL10 / Fold change vs veh, BCL10 / RFU, UHRF1BP1L / Fold change vs veh, UHRF1BP1L / RFU, BET1 / Fold change vs veh, BET1 / RFU, CNOT2 / Fold change vs veh, CNOT2 / RFU, ZNF268 / Fold change vs veh, ZNF268 / Fold change vs veh, ZNF507 / RFU, DGCR2 / Fold change vs veh, DGCR2 / RFU, WDSUB1 / Fold change vs veh, WDSUB1 / Fold change vs veh, HSP90B1 /// MIR3652 / RFU, ADSS / Fold change vs veh, ADSS / RFU, GK / Fold change vs veh, GK / RFU, ZNF148 / Fold change vs veh, ZNF148 / RFU, TAF9 / Fold change vs veh, TAF9 / RFU, SLC1A5 / Fold change vs veh, SLC1A5 / RFU, SLMO2 / Fold change vs veh, SLMO2 / RFU, ABCC4 / Fold change vs veh, ABCC4 / RFU, LOC101060439 /// RAP1B / Fold change vs veh, LOC101060439 /// RAP1B / RFU, RFX7 / Fold change vs veh, RFX7 / RFU, GTPBP10 / Fold change vs veh, GTPBP10 / RFU, CNEP1R1 / Fold change vs veh, CNEP1R1 / RFU, BIVM-ERCC5 /// ERCC5 / Fold change vs veh, BIVM-ERCC5 /// ERCC5 / RFU, ILF3 / Fold change vs veh, ILF3 / RFU 11762660_at / Fold change /veh 11762660_at / RFU VCAN (11757783_s_at) / Fold change /veh VCAN (11757783_s_at) / RFU DDX43 (11728927_at) / Fold change /veh DDX43 (11728927_at) / RFU KRT8 (11758188_x_at) / Fold change /veh KRT8 (11758188_x_at) / RFU NKD1 (11759106_at) / Fold change /veh NKD1 (11759106_at) / RFU SRD5A1 (11742802_a_at) / Fold change /veh SRD5A1 (11742802_a_at) / RFU TPSAB1 /// TPSB2 (11721975_s_at) / Fold change /veh TPSAB1 /// TPSB2 (11721975_s_at) / RFU GSTM3 (11746129_a_at) / Fold change /veh GSTM3 (11746129_a_at) / RFU IL23R (11737362_x_at) / Fold change /veh IL23R (11737362_x_at) / RFU TMEM51 (11727254_a_at) / Fold change /veh TMEM51 (11727254_a_at) / RFU PIWIL2 (11732686_x_at) / Fold change /veh PIWIL2 (11732686_x_at) / RFU ORM1 (11744905_x_at) / Fold change /veh ORM1 (11744905_x_at) / RFU CCDC152 (11743942_at) / Fold change /veh CCDC152 (11743942_at) / RFU ECM1 (11717891_a_at) / Fold change /veh ECM1 (11717891_a_at) / RFU IL23R (11748794_a_at) / Fold change /veh IL23R (11748794_a_at) / RFU TNFAIP8L3 (11732012_x_at) / Fold change /veh TNFAIP8L3 (11732012_x_at) / RFU MBOAT4 (11741988_at) / Fold change /veh MBOAT4 (11741988_at) / RFU 11764193_at / Fold change /veh 11764193_at / RFU TMEM53 (11763286_at) / Fold change /veh TMEM53 (11763286_at) / RFU MAGEB2 (11727129_at) / Fold change /veh MAGEB2 (11727129_at) / RFU TMEM200A (11744735_a_at) / Fold change /veh TMEM200A (11744735_a_at) / RFU CCDC152 (11751479_a_at) / Fold change /veh CCDC152 (11751479_a_at) / RFU FAM211A (11726209_a_at) / Fold change /veh FAM211A (11726209_a_at) / RFU RGS16 (11746705_a_at) / Fold change /veh RGS16 (11746705_a_at) / RFU VCAN (11755009_s_at) / Fold change /veh VCAN (11755009_s_at) / RFU RHOB (11743442_s_at) / Fold change /veh RHOB (11743442_s_at) / RFU RGS16 (11720943_a_at) / Fold change /veh RGS16 (11720943_a_at) / RFU RGS16 (11720944_at) / Fold change /veh RGS16 (11720944_at) / RFU, VPS4B / Fold change vs veh, VPS4B / RFU, CREB1 / Fold change vs veh, CREB1 / RFU, DNAJC13 / Fold change vs veh, DNAJC13 / RFU, GNAQ / Fold change vs veh, GNAQ / RFU, CDK5R1 / Fold change vs veh, CDK5R1 / RFU, ZRANB3 / Fold change vs veh, ZRANB3 / RFU, CUL4A / Fold change vs veh, CUL4A / RFU, CCNY / Fold change vs veh, CCNY / RFU, UFL1 / Fold change vs veh, UFL1 / RFU, COG3 / Fold change vs veh, COG3 / RFU, DIAPH2 / Fold change vs veh, DIAPH2 / RFU, SKA2 / Fold change vs veh, SKA2 / RFU, AFF3 / Fold change vs veh, AFF3 / RFU, LMF1 / Fold change vs veh, LMF1 / RFU, IPO11 / Fold change vs veh, IPO11 / RFU, DFFB / Fold change vs veh, DFFB / RFU, FOXP1 / Fold change vs veh, FOXP1 / RFU, CARD8 / Fold change vs veh, CARD8 / RFU, STRN3 / Fold change vs veh, STRN3 / RFU, ADK / Fold change vs veh, ADK / RFU, RASSF2 / Fold change vs veh, RASSF2 / RFU, WIPF1 / Fold change vs veh, WIPF1 / RFU, LARP1B / Fold change vs veh, LARP1B / RFU, RASA1 / Fold change vs veh, RASA1 / RFU, RB1 / Fold change vs veh, RB1 / RFU, PPFIA1 / Fold change vs veh, PPFIA1 / RFU, MAT2A / Fold change vs veh, MAT2A / RFU, CCT5 / Fold change vs veh, CCT5 / RFU, WDR92 / Fold change vs veh, WDR92 / RFU, CUX1 / Fold change vs veh, CUX1 / RFU, TTC7A / Fold change vs veh, TTC7A / RFU, TMEM135 / Fold change vs veh, TMEM135 / RFU, DEPTOR / Fold change vs veh, DEPTOR / RFU, CPM / Fold change vs veh, CPM / RFU, DNAJB6 / Fold change vs veh, DNAJB6 / RFU, CACNA2D3 / Fold change vs veh, CACNA2D3 / RFU, DTX4 / Fold change vs veh, DTX4 / RFU, TFCP2 / Fold change vs veh, TFCP2 / RFU, GMCL1 /// GMCL1P1 / Fold change vs veh, GMCL1 /// GMCL1P1 / RFU, AEBP2 / Fold change vs veh, AEBP2 / RFU, SNHG1 /// SNORD22 /// SNORD25 /// SNORD26 /// SNORD27 /// SNORD28 /// SNORD29 /// SNORD31 / Fold change vs veh, SNHG1 /// SNORD22 /// SNORD25 /// SNORD26 /// SNORD27 /// SNORD28 /// SNORD29 /// SNORD31 / Fold change (Aza/veh), C12orf56 (ProbeSet 11735607_a_at) / Fold change (ACY-1035/veh), C12orf56 (ProbeSet 11735607_a_at) / Fold change (Aza/veh), FGFR1OP (ProbeSet 11751329_s_at) / Fold change (ACY-1035/veh), FGFR1OP (ProbeSet 11751329_s_at) / Fold change (Aza/veh), VPS36 (ProbeSet 11739960_a_at) / Fold change (ACY-1035/veh), VPS36 (ProbeSet 11739960_a_at) / RFU SYPL1 (11715823_x_at) / Fold change /veh SYPL1 (11715823_x_at) / RFU IGFBP7 (11715501_s_at) / Fold change /veh IGFBP7 (11715501_s_at) / RFU REEP3 (11722064_at) / Fold change /veh REEP3 (11722064_at) / RFU IGLL1 (11728026_x_at) / Fold change /veh IGLL1 (11728026_x_at): dose or concentration left out as unconfirmed
Conditions: ProbeSet 11717702_a_at; LIST D

Nc1ccc(-c2cccs2)cc1NC(=O)c1ccc2c(c1)cc(C1CC1)n2CCN1CCOCC1 [ACY-1035]
Fold change vs veh, RB1: 0.96
